From article PMC9500755, “Albumin-Mediated Size Exclusion Chromatography: The Apparent Molecular Weight of PSMA Radioligands as Novel Parameter to Estimate Their Blood Clearance Kinetics” (Pharmaceuticals, 2022)

Tests used:
[1] = design: method as in PMID 26985056; conditions: 177Lu-labeled; cited from earlier work
[2] = molecular target: T1, human serum albumin (HSA) (Homo sapiens, UniProt P02768); test: Albumin-mediated size exclusion chromatography (AMSEC); assay type: in vitro ADME; conditions: for tR,AMSEC (retention time in AMSEC run): 177Lu-labeled ligand, mobile phase 700 µM HSA in PBS pH 7.4, Superdex 75 Increase, corrected for detector offset, normalized to column 1; for Retention factor k: fraction of time the radioligand is complexed to HSA during the AMSEC run, Equation (2); for MWapp,raw (raw apparent molecular weight): from tR,AMSEC by column calibration, 700 µM HSA in PBS pH 7.4; for MWapp,norm. (normalized apparent molecular weight): from tR,norm. by column calibration; for tR,norm. (normalized retention time): normalized with tR,blank, tR,HSA and tR,acetone, Equation (5)
T1 construct: purchased Biowest, Nuaillé, France
T1 sequence (P02768 25-609): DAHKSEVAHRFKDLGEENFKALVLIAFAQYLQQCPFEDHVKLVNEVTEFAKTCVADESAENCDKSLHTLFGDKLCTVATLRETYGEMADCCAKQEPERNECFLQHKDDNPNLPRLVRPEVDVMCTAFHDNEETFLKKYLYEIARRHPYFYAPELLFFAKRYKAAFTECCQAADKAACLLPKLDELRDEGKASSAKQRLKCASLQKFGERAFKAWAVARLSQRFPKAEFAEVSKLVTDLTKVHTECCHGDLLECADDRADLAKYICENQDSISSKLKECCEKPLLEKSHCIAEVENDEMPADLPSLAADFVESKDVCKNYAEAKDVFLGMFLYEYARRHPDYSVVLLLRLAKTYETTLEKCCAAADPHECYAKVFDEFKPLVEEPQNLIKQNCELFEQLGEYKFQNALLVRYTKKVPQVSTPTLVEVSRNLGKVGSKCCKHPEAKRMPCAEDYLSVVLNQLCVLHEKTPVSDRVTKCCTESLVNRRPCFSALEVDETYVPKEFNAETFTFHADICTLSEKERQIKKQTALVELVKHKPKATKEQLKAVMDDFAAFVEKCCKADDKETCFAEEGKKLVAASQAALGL
Protocol: All size exclusion chromatographic (SEC) experiments were carried out using the above-mentioned HPLC system equipped with a Superdex 75 Increase 10/300 GL gel filtration size exclusion column (fractionation range 70–3 kDa, GE Healthcare, Uppsala, Sweden). Eluents at room temperature, a constant flow rate of 0.8 mL/min, and an acquisition time of 35 min were generally applied. The column was calibrated as recommended by the manufacturer using a commercially available set of proteins (Gel Filtration LMW Calibration Kit, GE Healthcare, Buckinghamshire, UK). Retention times of calibration proteins and calculated calibration parameters are given in the Supplementary Materials (Table S3). UV signal detection occurred at 280 nm.
All retention times of radio signals were corrected for the offset between the UV-vis detector and radio-detector (Δt = 0.084 min). Throughout the development of the AMSEC method, three gel filtration columns of the same type were used for experiments (most data were acquired using column 1). As calculations were based on absolute empirical retention times that inherently differed slightly from column to column, all retention times determined on column 2 and column 3 were mathematically converted to an equivalent retention time on column 1 using the columns’ calibration parameters. A detailed description of these calculations is provided in the Supplementary Materials.
All numerical retention times explicitly given in running text or tables and plotted in diagrams are already corrected for the offset between UV-vis and radio-detector and, if initially determined on columns 2 or 3, converted to the equivalent retention time on column 1 (for detailed information, see Equations (S1) and (S2) and Table S1 in the Supplementary Materials).
AMSEC runs were executed with a solution of HSA (Biowest, Nuaillé, France) in PBS (pH 7.4) at physiological concentration (700 µM) as a mobile phase. Upon injection of approximately 1.0 MBq (5–10 µL) of a radioligand, the elution profile was monitored via radioactivity detection, and the retention times of observed radiopeaks (tR,AMSEC) were determined via semi-automated peak integration. By means of calibration, retention times were translated into a ligand-specific raw apparent molecular weight (MWapp,raw) as a parameter to assess the extent of HSA binding (for calculation, see Equation (S6) in the Supplementary Materials). rhPSMA-7.3 served as an internal standard during AMSEC studies and was co-evaluated whenever new data were collected to assess the reproducibility of the method (n = 14).
For reference purposes, conventional SEC runs of HSA (100 µL, 3 mg/mL) and acetone (100 µL, 2% in PBS pH 7.4) with PBS (pH 7.4) as a mobile phase were executed. The retention time of HSA (tR,HSA) corresponded to the maximal MWapp,raw, theoretically observable in AMSEC runs in the case of continuous binding of a radioligand to HSA (equivalent to 100% HSA binding). The retention time of acetone (tR,acetone) served as a reference for a ligand with no interaction with HSA in AMSEC runs (equivalent to 0% HSA binding) and an actual physical molecular weight below the column fractionation range (this was the case for all investigated radioligands).
MWapp,raw values determined as described in Section 3.3.1. were normalized in order to account for ligand-specific influences on experimentally determined retention times and to establish quantitative comparability of the obtained MWapp,norm. values. The normalization was based on a SEC run (referred to as blank run) of a radioligand executed in analogy to the AMSEC run but using PBS (pH 7.4) without HSA as a mobile phase. The determined retention time tR,blank, together with the retention time tR,AMSEC from the AMSEC run, tR,HSA, and tR,acetone determined in Section 3.3.1, were used to calculate a normalized retention time tR,norm. for every radioligand (for formulae and details on the calculation, see Section 2. Results and Discussion). […]

[3] = Calculated glomerular sieving coefficients (GSCcalc) from MWapp,norm.; conditions: from MWapp,norm. via sigmoidal fit of MW vs GSC of 12 human plasma proteins
Description: Therefore, when comparing the MWapp,norm. of different radioligands, not only their relative difference but also the absolute values of MWapp,norm. are of importance. […] These GSCcalc determined for all the PSMA radioligands (Table 2, Figure 5) inherently account for the exponential nature of the relationship between their albumin-mediated MWapp,norm. and MW-dependent GF and could, therefore, be a useful parameter to estimate differences in blood clearance by means of GF. The GSC is defined as the ratio of a compound’s concentration in the glomerular filtrate to that in the blood; thus, a GSC of 1 represents unhindered filtration through the capillary membrane in the glomerulus, while a lower GSC corresponds to a restricted filtration and, thus, a prolonged circulatory half-life. […] As an example, a GSCcalc of 0.408 was determined for rhPSMA-7.3, while an almost three-fold smaller GSCcalc of 0.138 was determined for rhPSMA-7.4. […] This would constitute a dramatic physiological effect that, in its extent, could not be predicted only based on subtle differences in molecular structure and other conventionally determined in vitro parameters. We, therefore, believe that the MWapp,norm. and GSCcalc obtained by AMSEC could be important parameters that, already at the preclinical stage of development, could help in the selection of promising therapeutic radioligands with pharmacokinetic profiles suitable for patient application.
A sigmoidal fit of molecular weights (MWs, in kDa) and corresponding glomerular sieving coefficients (GSCs) of 12 human plasma proteins (data taken from Norden et al.) was executed using OriginPro software. A dose-response model based on Equation (6) was applied:(6) GSC=A1+A2−A1/1+10^(LOGx0−MW)·p.
The values of bottom asymptote A1 and top asymptote A2 were set to 4.2∙10^−5 (GSC of IgG, data taken from Norden et al.) and 1 (equaling complete sieving), respectively. Curve fitting gave the center parameter LOGx0 = 19.36833 and the Hill slope p = −0.12108. GSCcalc values were calculated via implementation of fitting parameters and the experimentally determined MWapp,norm. in Equation (6).

[4] = design: method as in PMID 30105912, PMID 29684274; conditions: 177Lu-labeled, mice; cited from earlier work
[5] = design: method as in PMID 35086894; conditions: head-to-head with four isomers of rhPSMA-7 and rhPSMA-10.2; cited from earlier work

SMILES	blood clearance [1]	tR,AMSEC (retention time in AMSEC run) [2] [min]	Retention factor k [2]	MWapp,raw (raw apparent molecular weight) [2] [kDa]	MWapp,norm. (normalized apparent molecular weight) [2] [kDa]	tR,norm. (normalized retention time) [2] [min]	GSCcalc (calculated glomerular sieving coefficient) [3]	therapeutic efficacy compared to PSMA-617 [4]	blood clearance in mice [5]	MWapp,norm. higher than that of the stereoisomer ([2]; rhPSMA-7.2 vs rhPSMA-7.1, rhPSMA-10.1 vs rhPSMA-10.2) [%]
O=C(O)CC[C@H](NC(=O)N[C@@H](CCCCNC(=O)[C@H](Cc1ccc2ccccc2c1)NC(=O)[C@H]1CC[C@H](CNC(=O)CN2CCN(CC(=O)O)CCN(CC(=O)O)CCN(CC(=O)O)CC2)CC1)C(=O)O)C(=O)O (177Lu complex, metal not drawn) [PSMA-617, reference compound]	rapid, bi-phasic blood clearance	17.586	0.447	13.8	9.4	18.988	0.942	–	–	–
Cc1ccc(CCCC(=O)NCCCC[C@H](NC(=O)CN2CCN(CC(=O)O)CCN(CC(=O)O)CCN(CC(=O)O)CC2)C(=O)NCC2CCC(C(=O)N[C@@H](Cc3ccc4ccccc4c3)C(=O)NCCCC[C@H](NC(=O)N[C@@H](CCC(=O)O)C(=O)O)C(=O)O)CC2)cc1 (stereo partly shown) (177Lu complex, metal not drawn) [PSMA-ALB-56]	–	–	–	–	–	–	–	superior therapeutic efficacy	–	–
CC(C)(C)[Si](F)(c1ccc(C(=O)NC[C@@H](NC(=O)CN2CCN(CC(=O)[O-])CCN(CC(=O)[O-])CCN(CC(=O)[O-])CC2)C(=O)N[C@H](CCCCNC(=O)CCC(=O)NCCC[C@@H](NC(=O)CC[C@H](NC(=O)N[C@@H](CCC(=O)O)C(=O)O)C(=O)O)C(=O)O)C(=O)O)cc1)C(C)(C)C.[177Lu+3] [rhPSMA-10.1]	–	15.410	0.616	25.3	17.2	16.789	0.644	–	fast blood clearance	30
